Test results taken from patent publication US9056851B2, “Thiolactone antibiotics” (priority 2011, dated 2015).
≈ marks a conversion by molar mass, not a printed value.

How the values were obtained:
M. tuberculosis H37Rv = test: MIC against M. tuberculosis; format: cell-based; details: Mycobacterium tuberculosis, H37RV, read-out: MIC (μg/ml) M. tb (MIC99)
Pasteurella multocida = details: cited from earlier work
E. coli NIHJ = details: cited from earlier work
E. coli 11 = details: cited from earlier work
Shigella sonnei T1 = details: cited from earlier work
S. aureus BAA1762 = test: MIC against S. aureus BAA1762 (MRSA); format: cell-based; details: Staphylococcus aureus, read-out: MIC (μg/ml) Staph. aureus BAA1762 MRSA
[1] = in vivo; cited from earlier work
Shigella flexneri 2b T1 = details: cited from earlier work
Salmonella enterides T-1 = details: cited from earlier work
bacteria of Table 4 = details: broad range of bacteria (Table 4); cited from earlier work
Salmonella paratyphi = details: cited from earlier work
Salmonella typhi = details: cited from earlier work
mammalian FAS-I enzymes = details: selectivity versus FAS-II KAS enzymes; cited from earlier work
Serratia marcescens [2] = details: cited from earlier work
[3] = rats, orally and by intramuscular injection; cited from earlier work
Klebsiella pneumoniae [4] = details: cited from earlier work
M. tuberculosis = details: cited from earlier work
S. aureus RN4220 = test: MIC against S. aureus RN4220 (MSSA); format: cell-based; details: Staphylococcus aureus, read-out: MIC (μg/ml) Staph. aureus RN4220 MSSA
F. tularensis LVS = test: microbe, parasite or virus in culture; format: cell-based; details: Francisella tularensis, read-out: MIC (μg/ml) F. tu
Klebsiella pneumoniae [5] = details: urinary tract and oral infections; cited from earlier work
[6] = in vivo; cited from earlier work; remark: listed apart in the source
M. smegmatis MC^2155 = test: MIC against M. smegmatis; format: cell-based; details: Mycolicibacterium smegmatis, MC^2155, read-out: MIC (μg/ml) M. smeg
Serratia marcescens [7] = details: urinary tract and oral infections; cited from earlier work
Staphylococcus aureus = details: cited from earlier work
B. pseudomallei Bp82z66 = test: microbe, parasite or virus in culture; format: cell-based; details: Burkholderia pseudomallei, BP82Z66, read-out: MIC (μg/ml) B. pseudomallei
E. coli No9 = details: cited from earlier work
Y. pestis A1122 = test: microbe, parasite or virus in culture; format: cell-based; details: Yersinia pestis, A1122, read-out: MIC (μg/ml) Y. pestis

C=C/C(C)=C/[C@@]1(C)SC(=O)C(C)=C1O [TLM, 5R-(+)-Thiolactomycin]
MIC99 (M. tuberculosis H37Rv): 3.13 µg/mL (≈ 14.9 µM)
MIC (Pasteurella multocida): 0.2 µg/mL (≈ 0.951 µM)
MIC (E. coli NIHJ): 200 µg/mL (≈ 951 µM)
MIC (E. coli 11): 25 µg/mL (≈ 119 µM)
MIC (Shigella sonnei T1): 100 µg/mL (≈ 476 µM)
MIC (S. aureus BAA1762): 75 µg/mL (≈ 357 µM)
toxicity [1]: low toxicity
MIC (Shigella flexneri 2b T1): 6.3 µg/mL (≈ 30 µM)
MIC (Salmonella enterides T-1): 12.5 µg/mL (≈ 59.4 µM)
MIC values, range over organisms (bacteria of Table 4): 6 to 200 µg/mL
MIC (Salmonella paratyphi): 50 µg/mL (≈ 238 µM)
MIC (Salmonella typhi): 12.5 µg/mL (≈ 59.4 µM)
inhibition of mammalian FAS-I enzymes (mammalian FAS-I enzymes): does not inhibit
MIC (Serratia marcescens [2]): 100 µg/mL (≈ 476 µM)
absorption [3]: rapidly absorbed
MIC (Klebsiella pneumoniae [4]): 100 µg/mL (≈ 476 µM)
MIC (M. tuberculosis): 25 µg/mL (≈ 119 µM)
MIC (S. aureus RN4220): 75 µg/mL (≈ 357 µM)
MIC (F. tularensis LVS): 2.81 µg/mL (≈ 13.4 µM)
protection from infection (Klebsiella pneumoniae [5]): provides protection
bioavailability [6]: high bioavailability
MIC (M. smegmatis MC^2155): 25 µg/mL (≈ 119 µM)
protection from infection (Serratia marcescens [7]): provides protection
MIC (Staphylococcus aureus): 25 µg/mL (≈ 119 µM)
MIC (B. pseudomallei Bp82z66): 13.1 µg/mL (≈ 62.4 µM)
MIC (E. coli No9): 100 µg/mL (≈ 476 µM)
MIC (Y. pestis A1122): 8.09 µg/mL (≈ 38.5 µM)
